Patent US20080096922A1, “Novel Sulfonamide derivative” (Dainippon Sumitomo Pharma Co., Ltd., priority 2004, published 2008)
Where a name gives a salt, the structure may show the parent alone.

test system: LDL receptor; assay: Effects on an activity of a LDL receptor: uptake amount of DiI-LDL into HepG2 cell; type: cell-based, human; conditions: 1 μM, control group as 100%
Method: The 1,1′-dioctadecyl-3,3,3′,3′-tetramethylindocarbocyanine perchlorate (DiI)-labeled LDL (DiI-LDL) was prepared as follows. That is, a DiI (Invitrogen Corp., U.S.A) was mixed with a human LDL (Chemicon International, Inc., U.S.A) and the mixture was incubated at 37° C. for 8 hours. […] After centrifugation, the DiI-labeled LDL fraction was separated and dialyzed with a physiological saline to prepare the above desired solution.
The effects on a LDL receptor activity were determined as the uptake amount of DiI-LDL into HepG2 cell. The cultured human hepatic cell line HepG2 cell was purchased from the Dainippon Pharmaceuticals Co. Ltd. (Osaka, Japan). The HepG2 cells were seeded in a 96 well plate and were incubated in the Dulbecco's modified Eagle/F-12 (DMEM/F-12) medium containing 10% fetal bovine serum and antibiotics in a CO2 incubator at 37° C. for two to three days. After washing the cells, a DMEM/F-12 medium containing 5-10% lipoprotein-deficient serum, the test substrate and the antibiotics were added thereto and the cells were incubated at 37° C. for 19 hours. After adding DiI-LDL, the cells were incubated in a CO2 incubator at 37° C. for another 5 hours. The uptake amount of non-specific DiI-LDL was measured by adding 30 to 50 folds amount of the non-labeled LDL. After washing the cells with Dulbecco's phosphate buffer (Sigma Corp., U.S.A.), the Dulbecco's phosphate buffer was added to each well and then the uptake amount of DiI-LDL into the cell line were measured as the value of fluorescence. After measuring the fluorescence, the Dulbecco's phosphate buffer was removed and thereto was added 1N sodium hydroxide solution to dissolve the cells and the amount of protein was measured by using a part of the resulting solution. The effect on a LDL receptor activity by each compound was determined by calculating the ratio of the amount of fluorescence/the amount of protein, and by subtracting the non-specific uptake amount therefrom and then calculating the control group as 100%.

Row | Compound | Activity of (%) LDL receptor [%]
1 | COc1cccc([C@]2(CNS(C)(=O)=O)CC[C@@H](NCc3ccc(-c4ccccc4)cc3)CC2)c1 [Example 24, N-{[cis-4-[(biphenyl-4-ylmethyl)amino]-1-(3-methoxyphenyl)cyclohexyl]methyl}methanesulfonamide] | 238
2 | CNS(=O)(=O)NC[C@]1(c2cccc(OC)c2)CC[C@H](NCc2ccc(-c3ccccc3)cc2)CC1.Cl [Example 49, N-{[cis-4-[(biphenyl-4-ylmethyl)amino]-1-(3-methoxyphenyl)cyclohexyl]methyl}-N′-methylsulfamide hydrochloride] | 208
3 | COc1cccc([C@]2(CNS(=O)(=O)N(C)C(=O)OC(C)(C)C)CC[C@@H](NCc3ccc(-c4ccccc4)cc3)CC2)c1 [Example 48, tert-butyl [({[cis-4-[(biphenyl-4-ylmethyl)amino]-1-(3-methoxyphenyl)cyclohexyl]methyl}amino)sulfonyl]methylcarbamate] | 145
4 | COc1cccc([C@]2(CNS(N)(=O)=O)CC[C@@H](NCc3ccc(-c4ccccc4)cc3)CC2)c1.Cl [Example 42, N-{[cis-4-[(biphenyl-4-ylmethyl)amino]-1-(3-methoxyphenyl)cyclohexyl]methyl}sulfamide hydrochloride] | 188
5 | COc1cccc([C@]2(CNS(N)(=O)=O)CC[C@@H](NC(C)c3ccccc3)CC2)c1 (stereo partly drawn) [Example 20, N-({cis-1-(3-methoxyphenyl)-4-[(1-phenylethyl)amino]-cyclohexyl}methyl)sulfamide] | 128

same assay, conditions: 3 μM, control group as 100%

Row | Compound | Activity of (%) LDL receptor [%]
6 | COc1cccc([C@]2(CNS(=O)(=O)c3ccc(C)cc3)CC[C@@H](NCc3ccc(-c4ccccc4)cc3)CC2)c1 [Example 25, N-{[cis-4-[(biphenyl-4-ylmethyl)amino]-1-(3-methoxyphenyl)cyclohexyl]methyl}-4-methylbenzenesulfonamide] | 153
7 | COc1cccc([C@]2(CCNS(N)(=O)=O)CC[C@@H](NCc3ccc(-c4ccccc4)cc3)CC2)c1.Cl [Example 22, N-{2-[trans-4-[(biphenyl-4-ylmethyl)amino]-1-(3-methoxyphenyl)cyclohexyl]ethyl}sulfamide hydrochloride] | 156
8 | COc1cccc(C2(C(=O)NS(=O)(=O)Oc3c(C(C)C)cccc3C(C)C)CC3CCCC(C2)N3c2ccccc2OC)c1.Cl (stereo not shown) [Example 57, 2,6-diisopropylphenyl {[9-(2-methoxyphenyl)-3-(3-methoxyphenyl)-9-azabicyclo[3.3.1]nonan-3-yl]carbonyl}sulfamate hydrochloride] | 124
9 | COc1cccc([C@]2(CNS(N)(=O)=O)CC[C@H](NCc3ccc(-c4ccccc4)cc3)CC2)c1 [Example 43, N-{[trans-4-[(biphenyl-4-ylmethyl)amino]-1-(3-methoxyphenyl)cyclohexyl]methyl}sulfamide hydrochloride] | 146

same assay, conditions: 10 μM, control group as 100%

Row | Compound | Activity of (%) LDL receptor [%]
10 | COc1cccc(C2(C(=O)NS(=O)(=O)Oc3c(C(C)C)cccc3C(C)C)CCN(c3ncccn3)CC2)c1 [Example 1-17, 2,6-diisopropylphenyl {[4-(3-methoxyphenyl)-1-pyrimidin-2-ylpiperidin-4-yl]carbonyl}sulfamate] | 120
11 | COc1cccc(C2(C(=O)NS(=O)(=O)Oc3ccccc3C(C)(C)C)CCN(c3ccccc3OC)CC2)c1 [Example 1-8, 2-tert-butylphenyl {[1-(2-methoxyphenyl)-4-(3-methoxyphenyl)piperidin-4-yl]carbonyl}sulfamate] | 134
12 | COc1cccc(C2(C(=O)NS(=O)(=O)Oc3c(C(C)C)cccc3C(C)C)CCN(c3nc4ccccc4s3)CC2)c1 [Example 1-19, 2,6-diisopropylphenyl {[1-(1,3-benzothiazol-2-yl)-4-(3-methoxyphenyl)piperidin-4-yl]carbonyl}sulfamate] | 132
13 | COc1cccc(C2(C(=O)NS(=O)(=O)NC(C)c3ccccc3)CCN(c3ncccn3)CC2)c1 (stereo not shown) [Example 28-6, 4-(3-methoxyphenyl)-N-{[(1-phenylethyl)amino]sulfonyl}-1-pyrimidin-2-ylpiperidine-4-carboxamide] | 127
14 | COc1cccc([C@]2(CNS(C)(=O)=O)CC[C@@H](NCc3ccc(S(C)(=O)=O)cc3)CC2)c1 [Example 12-2, N-[(cis-1-(3-methoxyphenyl)-4-{[4-(methylsulfonyl)benzyl]-amino}cyclohexyl)methyl]methanesulfonamide] | 142
15 | COc1cccc([C@]2(CNS(=O)(=O)NC(=O)OC(C)(C)C)CC[C@@H](NCc3ccc(-c4ccccc4)cc3)CC2)c1 [Example 41, tert-butyl [({[cis-4-[(biphenyl-4-ylmethyl)amino]-1-(3-methoxyphenyl)cyclohexyl]methyl}amino)sulfonyl]carbamate] | 173
16 | COc1cccc([C@]2(CNS(N)(=O)=O)CC[C@H](NC3CCN(Cc4ccccc4)CC3)CC2)c1 [Example 55, N-{[trans-4-[(1-benzylpiperidin-4-yl)amino]-1-(3-methoxyphenyl)cyclohexyl]methyl}sulfamide dihydrochloride] | 140
17 | COc1cccc([C@]2(CNS(N)(=O)=O)CC[C@@H](NC3CCN(Cc4ccccc4)CC3)CC2)c1 [Example 18-1, N-{[cis-4-[(1-benzylpiperidin-4-yl)amino]-1-(3-methoxyphenyl)cyclohexyl]methyl}sulfamide] | 230
18 | COc1cccc([C@]2(CNS(C)(=O)=O)CC[C@@H](NC3CCN(Cc4ccc(NC(C)=O)cc4)CC3)CC2)c1 [Example 15-1, N-[4-({4-[(cis-4-(3-methoxyphenyl)-4-{[(methylsulfonyl)-amino]methyl}cyclohexyl)amino]piperidin-1-yl}methyl)phenyl]acetamide] | 192
19 | COc1cccc([C@]2(CNS(N)(=O)=O)CC[C@@H](NCc3ccc(-n4ccnc4)cc3)CC2)c1 [Example 18-2, N-{[cis-4-{[4-(1H-imidazol-1-yl)benzyl]amino}-1-(3-methoxyphenyl)cyclohexyl]methyl}sulfamide] | 161
20 | COc1cccc(C2(NS(=O)(=O)NC(=O)c3ccc(Cl)cc3)CCN(c3ncccn3)CC2)c1 [Example 34, 4-chloro-N-({[4-(3-methoxyphenyl)-1-pyrimidin-2-yl-piperidin-4-yl]amino}sulfonyl)benzamide] | 139
21 | COc1cccc(C2(CNS(C)(=O)=O)CCN(c3ccccc3OC)CC2)c1 [Example 27-1, N-{[1-(2-methoxyphenyl)-4-(3-methoxyphenyl)piperidin-4-yl]methyl}methanesulfonamide] | 108
22 | COc1cccc([C@]2(CNS(C)(=O)=O)CC[C@H](N3CCN(C)CC3)CC2)c1 [Example 13-1, N-{[trans-1-(3-methoxyphenyl)-4-(4-methylpiperazin-1-yl)cyclohexyl]methyl}methanesulfonamide] | 129
23 | COc1cccc(C2(C(=O)NS(N)(=O)=O)CCN(c3ncccn3)CC2)c1 [Example 28-1, N-(aminosulfonyl)-4-(3-methoxyphenyl)-1-pyrimidin-2-ylpiperidine-4-carboxamide] | 186
24 | COc1cccc([C@]2(CNS(N)(=O)=O)CC[C@@H](NCc3ccc(-n4cncn4)cc3)CC2)c1 [Example 18-3, N-[(cis-1-(3-methoxyphenyl)-4-{[4-(1H-1,2,4-triazol-1-yl)-benzyl]amino}cyclohexyl)methyl]sulfamide] | 154
25 | COc1cccc([C@]2(CNS(N)(=O)=O)CC[C@@H](NCc3ccc(S(N)(=O)=O)cc3)CC2)c1.Cl [Example 38, 4-({[cis-4-{[(aminosulfonyl)amino]methyl}-4-(3-methoxyphenyl)cyclohexyl]amino}methyl)benzenesulfonamide hydrochloride] | 150
26 | COc1cccc(C2(CNS(=O)(=O)c3ccc(C)cc3)CCN(C(c3ccccc3)c3ccccc3)CC2)c1 [Example 36, N-{[1-(diphenylmethyl)-4-(3-methoxyphenyl)piperidin-4-yl]methyl}-4-methylbenzenesulfonamide] | 122
27 | COc1cccc([C@]2(CNS(C)(=O)=O)CC[C@@H](NC3CCNCC3)CC2)c1 [Example 10-3, N-{[cis-1-(3-methoxyphenyl)-4-(piperidin-4-ylamino)-cyclohexyl]methyl}methanesulfonamide dihydrochloride] | 162
28 | COc1cccc(C2(C(=O)NP(=O)(Cc3ccccc3C)OC)CCN(c3ccccc3OC)CC2)c1 (stereo not shown) [Example 2-1, methyl N-{[1-(2-methoxyphenyl)-4-(3-methoxyphenyl)piperidin-4-yl]carbonyl}-P-(2-methylbenzyl)-phosphonamidate] | 140
